# The OligoGym collection
# HELM strings list units from the 5' end as sugar, base in round brackets, then linkage (d deoxyribose, r ribose, m 2'-O-methyl, p phosphodiester). Strings are as the collection lists them; they lack the last nucleoside at the 3' end of the tested compound. [moe] = 2'-O-(2-methoxyethyl) (MOE); [sp] = phosphorothioate linkage; [m5C] = 5-methylcytosine
# Target: APP
# Experiment: mouse, dose not given
# Conditions: ASO
row,Substance,3 h FOB score [score 0-7]
1,RNA1{[moe](T)[sp].[moe](T)p.[moe](A)p.[moe]([m5C])p.[moe]([m5C])[sp].d(T)[sp].d(T)[sp].d(T)[sp].d(A)[sp].d(A)[sp].d([m5C])[sp].d(A)[sp].d(T)[sp].d(T)[sp].d([m5C])[sp].[moe]([m5C])p.[moe](T)p.[moe]([m5C])[sp].[moe](A)}$$$$ (last 3' nucleoside missing),0
2,RNA1{[moe](G)[sp].[moe](G)p.[moe](A)p.[moe](A)p.[moe]([m5C])[sp].d(T)[sp].d([m5C])[sp].d(G)[sp].d(A)[sp].d(A)[sp].d([m5C])[sp].d([m5C])[sp].d(A)[sp].d([m5C])[sp].d([m5C])[sp].[moe](T)p.[moe]([m5C])p.[moe](T)[sp].[moe](T)}$$$$ (last 3' nucleoside missing),2.5
3,RNA1{[moe](T)[sp].[moe]([m5C])p.[moe]([m5C])p.[moe](A)p.[moe](A)[sp].d(T)[sp].d(T)[sp].d(T)[sp].d(T)[sp].d(A)[sp].d(A)[sp].d([m5C])[sp].d(T)[sp].d(T)[sp].d(G)[sp].[moe]([m5C])p.[moe](A)p.[moe]([m5C])[sp].[moe]([m5C])}$$$$ (last 3' nucleoside missing),0.5
4,RNA1{[moe](A)[sp].[moe](G)p.[moe]([m5C])p.[moe](T)p.[moe](T)[sp].d(A)[sp].d([m5C])[sp].d(A)[sp].d(T)[sp].d([m5C])[sp].d(A)[sp].d(T)[sp].d(T)[sp].d(T)[sp].d(T)[sp].[moe]([m5C])p.[moe](T)p.[moe](T)[sp].[moe](G)}$$$$ (last 3' nucleoside missing),1
5,RNA1{[moe](G)[sp].[moe]([m5C])p.[moe](T)p.[moe]([m5C])p.[moe](A)[sp].d(G)[sp].d(A)[sp].d(G)[sp].d([m5C])[sp].d([m5C])[sp].d(A)[sp].d(G)[sp].d(G)[sp].d([m5C])[sp].d(G)[sp].[moe](A)p.[moe](G)p.[moe](T)[sp].[moe]([m5C])}$$$$ (last 3' nucleoside missing),3
6,RNA1{[moe]([m5C])[sp].[moe](A)p.[moe]([m5C])p.[moe]([m5C])p.[moe](T)[sp].d([m5C])[sp].d(A)[sp].d(G)[sp].d([m5C])[sp].d([m5C])[sp].d(A)[sp].d([m5C])[sp].d(T)[sp].d(T)[sp].d([m5C])[sp].[moe](T)p.[moe](T)p.[moe]([m5C])[sp].[moe]([m5C])}$$$$ (last 3' nucleoside missing),0.5
7,RNA1{[moe](G)[sp].[moe](T)p.[moe](A)p.[moe]([m5C])p.[moe](T)[sp].d([m5C])[sp].d(A)[sp].d(T)[sp].d(T)[sp].d(T)[sp].d(T)[sp].d(T)[sp].d(G)[sp].d(T)[sp].d(T)[sp].[moe]([m5C])p.[moe](T)p.[moe](T)[sp].[moe](A)}$$$$ (last 3' nucleoside missing),0.67
8,RNA1{[moe](T)[sp].[moe](T)p.[moe]([m5C])p.[moe]([m5C])p.[moe](A)[sp].d(A)[sp].d(A)[sp].d(G)[sp].d(A)[sp].d(T)[sp].d(T)[sp].d([m5C])[sp].d([m5C])[sp].d(A)[sp].d([m5C])[sp].[moe](T)p.[moe](T)p.[moe](T)[sp].[moe]([m5C])}$$$$ (last 3' nucleoside missing),0
9,RNA1{[moe]([m5C])[sp].[moe](A)p.[moe](T)p.[moe](G)p.[moe](A)[sp].d(G)[sp].d(T)[sp].d([m5C])[sp].d([m5C])[sp].d(A)[sp].d(A)[sp].d(T)[sp].d(G)[sp].d(A)[sp].d(T)[sp].[moe](T)p.[moe](G)p.[moe]([m5C])[sp].[moe](A)}$$$$ (last 3' nucleoside missing),5.5
10,RNA1{[moe](A)[sp].[moe](T)p.[moe](G)p.[moe](T)p.[moe](G)p.[moe](A)[sp].d(T)[sp].d(T)[sp].d(T)[sp].d([m5C])[sp].d(A)[sp].d([m5C])[sp].d(T)[sp].d(A)[sp].d(A)[sp].d([m5C])[sp].[moe]([m5C])p.[moe](G)[sp].[moe](G)}$$$$ (last 3' nucleoside missing),0
11,RNA1{[moe]([m5C])[sp].[moe](T)p.[moe](T)p.[moe](T)p.[moe](T)[sp].d(G)[sp].d(T)[sp].d(A)[sp].d(T)[sp].d([m5C])[sp].d(A)[sp].d(T)[sp].d(A)[sp].d(A)[sp].d(A)[sp].[moe](T)p.[moe](G)p.[moe](A)[sp].[moe](A)}$$$$ (last 3' nucleoside missing),0.5
12,RNA1{[moe](G)[sp].[moe](A)p.[moe](G)p.[moe](A)p.[moe](T)[sp].d(A)[sp].d([m5C])[sp].d(T)[sp].d(T)[sp].d(G)[sp].d(T)[sp].d([m5C])[sp].d(A)[sp].d(A)[sp].d([m5C])[sp].[moe](G)p.[moe](G)p.[moe]([m5C])[sp].[moe](A)}$$$$ (last 3' nucleoside missing),1.67
13,RNA1{[moe](G)[sp].[moe](T)p.[moe](A)p.[moe](G)p.[moe](G)[sp].d(A)[sp].d(A)[sp].d([m5C])[sp].d(T)[sp].d([m5C])[sp].d(G)[sp].d(A)[sp].d(A)[sp].d([m5C])[sp].d([m5C])[sp].[moe](A)p.[moe]([m5C])p.[moe]([m5C])[sp].[moe](T)}$$$$ (last 3' nucleoside missing),2
14,RNA1{[moe]([m5C])[sp].[moe](T)p.[moe](A)p.[moe]([m5C])p.[moe]([m5C])[sp].d([m5C])[sp].d([m5C])[sp].d(T)[sp].d([m5C])[sp].d(G)[sp].d(G)[sp].d(A)[sp].d(A)[sp].d([m5C])[sp].d(T)[sp].[moe](T)p.[moe](G)p.[moe](T)[sp].[moe]([m5C])}$$$$ (last 3' nucleoside missing),0.75
15,RNA1{[moe]([m5C])[sp].[moe](A)p.[moe](G)p.[moe]([m5C])p.[moe]([m5C])[sp].d([m5C])[sp].d([m5C])[sp].d(A)[sp].d(A)[sp].d(A)[sp].d(A)[sp].d(G)[sp].d(A)[sp].d(A)[sp].d(T)[sp].[moe](G)p.[moe]([m5C])p.[moe]([m5C])[sp].[moe](A)}$$$$ (last 3' nucleoside missing),0.5
16,RNA1{[moe](A)[sp].[moe]([m5C])p.[moe](A)p.[moe]([m5C])p.[moe](A)[sp].d([m5C])[sp].d(A)[sp].d(A)[sp].d(A)[sp].d([m5C])[sp].d(T)[sp].d([m5C])[sp].d(T)[sp].d(A)[sp].d([m5C])[sp].[moe]([m5C])p.[moe]([m5C])p.[moe]([m5C])[sp].[moe](T)}$$$$ (last 3' nucleoside missing),0.5
17,RNA1{[moe](G)[sp].[moe]([m5C])p.[moe](A)p.[moe](T)p.[moe](T)[sp].d([m5C])[sp].d(A)[sp].d([m5C])[sp].d(A)[sp].d(A)[sp].d([m5C])[sp].d(A)[sp].d([m5C])[sp].d(A)[sp].d([m5C])[sp].[moe](A)p.[moe](T)p.[moe]([m5C])[sp].[moe]([m5C])}$$$$ (last 3' nucleoside missing),0.67
18,RNA1{[moe]([m5C])[sp].[moe](A)p.[moe]([m5C])p.[moe]([m5C])p.[moe](A)[sp].d(T)[sp].d([m5C])[sp].d(T)[sp].d(A)[sp].d(T)[sp].d(A)[sp].d(A)[sp].d(T)[sp].d(A)[sp].d([m5C])[sp].[moe]([m5C])p.[moe](A)p.[moe](T)[sp].[moe]([m5C])}$$$$ (last 3' nucleoside missing),0
19,RNA1{[moe](G)[sp].[moe]([m5C])p.[moe](G)p.[moe]([m5C])p.[moe](A)[sp].d(T)[sp].d(T)[sp].d(T)[sp].d(A)[sp].d(T)[sp].d(A)[sp].d([m5C])[sp].d(A)[sp].d(A)[sp].d(T)[sp].[moe](A)p.[moe](T)p.[moe](A)[sp].[moe]([m5C])}$$$$ (last 3' nucleoside missing),0
20,RNA1{[moe](G)[sp].[moe]([m5C])p.[moe](A)p.[moe](T)p.[moe]([m5C])[sp].d(A)[sp].d(G)[sp].d(G)[sp].d([m5C])[sp].d(T)[sp].d(A)[sp].d(A)[sp].d([m5C])[sp].d(A)[sp].d(A)[sp].[moe](G)p.[moe](T)p.[moe](T)[sp].[moe]([m5C])}$$$$ (last 3' nucleoside missing),4
21,RNA1{[moe]([m5C])[sp].[moe](A)p.[moe](T)p.[moe]([m5C])p.[moe](A)[sp].d([m5C])[sp].d(T)[sp].d(T)[sp].d(A)[sp].d([m5C])[sp].d(A)[sp].d(A)[sp].d(A)[sp].d([m5C])[sp].d(T)[sp].[moe]([m5C])p.[moe](A)p.[moe]([m5C])[sp].[moe]([m5C])}$$$$ (last 3' nucleoside missing),0.5
22,RNA1{[moe](A)[sp].[moe](T)p.[moe](T)p.[moe]([m5C])p.[moe](T)[sp].d([m5C])[sp].d(T)[sp].d(T)[sp].d(A)[sp].d(T)[sp].d(A)[sp].d(T)[sp].d(T)[sp].d([m5C])[sp].d([m5C])[sp].[moe](T)p.[moe](T)p.[moe](A)[sp].[moe]([m5C])}$$$$ (last 3' nucleoside missing),0.5
23,RNA1{[moe](G)[sp].[moe](T)p.[moe](T)p.[moe](T)p.[moe]([m5C])[sp].d(A)[sp].d(G)[sp].d(T)[sp].d(A)[sp].d(T)[sp].d(A)[sp].d(T)[sp].d(T)[sp].d([m5C])[sp].d(T)[sp].[moe]([m5C])p.[moe](T)p.[moe](G)[sp].[moe]([m5C])}$$$$ (last 3' nucleoside missing),0
24,RNA1{[moe](G)[sp].[moe]([m5C])p.[moe](T)p.[moe](T)p.[moe]([m5C])[sp].d(A)[sp].d(T)[sp].d(T)[sp].d(A)[sp].d([m5C])[sp].d([m5C])[sp].d(A)[sp].d([m5C])[sp].d(T)[sp].d(T)[sp].[moe]([m5C])p.[moe](T)p.[moe](G)[sp].[moe](A)}$$$$ (last 3' nucleoside missing),1
25,RNA1{[moe](G)[sp].[moe]([m5C])p.[moe](A)p.[moe]([m5C])p.[moe](A)[sp].d(A)[sp].d(A)[sp].d(T)[sp].d(T)[sp].d(T)[sp].d(T)[sp].d(A)[sp].d(T)[sp].d([m5C])[sp].d(A)[sp].[moe]([m5C])p.[moe](A)p.[moe](T)[sp].[moe]([m5C])}$$$$ (last 3' nucleoside missing),0
